Test results reported in ChEMBL document CHEMBL1201862, “PubChem BioAssay data set” (2004).
Active and inactive are the calls of the source. Cut-off read from the data, not from the text of the source, for most assays here: actives have a measured EC50 and inactives only a lower limit.

What was measured:
[1] = growth suppression of PTEN-null colon cells, dose response, cell-based, HCT116 PTEN knockout (AID 1047); format: functional;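 note: HCT116 colon tumor cells with PTEN knocked out; cells exposed to compound for 60 hours before readout; potency for loss of cell viability measured by luminescence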
[2] = test system: Streptococcus sp. 'group A'; experiment: growth inhibition of control SK(-) GAS strain, dose response, counter-screen for streptokinase expression inhibitor project, luminescence, kanamycin, BacTiterGlo, confirmation (AID 1900); format: functional, organism-based; settings: read-out: EC50
Streptococcus = experiment: Group A Streptococcus viability loss, dose response, counter-screen for streptokinase expression inhibitor project, luminescence, BacTiterGlo (AID 1915); format: functional, organism-based;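 note: potency for reduction of bacterial viability or growth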
[3] = growth suppression of beta-catenin-knockout colon cells, dose response, cell-based, HCT116, human colon tumor (AID 1045); format: functional;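 note: HCT116 colon tumor cells with beta catenin knocked out; cells exposed to compound for 60 hours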
Streptokinase A = biological target: T1, Streptokinase A (Streptococcus pyogenes serotype M1, UniProt P10520); experiment: S. pyogenes streptokinase expression inhibitors, potency, dose response, plasminogen activation absorbance, OD405 (AID 1914); format: functional, Streptococcus pyogenes M1 GAS;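 note: secreted streptokinase activity via plasminogen activation per viability signal from cell pellet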
T1 sequence (P10520 whole entry): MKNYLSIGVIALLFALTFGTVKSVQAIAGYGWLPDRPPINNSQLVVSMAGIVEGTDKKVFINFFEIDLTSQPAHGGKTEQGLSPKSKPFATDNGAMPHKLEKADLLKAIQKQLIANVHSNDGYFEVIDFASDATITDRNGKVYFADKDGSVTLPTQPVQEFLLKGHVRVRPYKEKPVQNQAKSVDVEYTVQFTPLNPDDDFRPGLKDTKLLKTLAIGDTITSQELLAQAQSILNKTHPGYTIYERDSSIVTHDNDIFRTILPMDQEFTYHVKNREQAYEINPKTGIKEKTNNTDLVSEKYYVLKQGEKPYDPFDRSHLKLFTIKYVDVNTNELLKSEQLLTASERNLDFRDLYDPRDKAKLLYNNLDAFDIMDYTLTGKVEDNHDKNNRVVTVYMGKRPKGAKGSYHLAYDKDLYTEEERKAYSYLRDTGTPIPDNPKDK

[4] = microbe, parasite or virus in culture; format: functional; settings: Mycobacterium tuberculosis
[5] = P. falciparum Dd2 growth inhibitors, dose response, SYBR Green, cherry-picked samples (AID 1159567); format: functional, cell-based
Paired box protein Pax-8 = Paired box protein Pax-8 (Homo sapiens, UniProt Q06710); experiment: inhibitors of PAX8-driven TPO luciferase reporter, dose response, RMG-I cells, cherry-pick (AID 687027); format: functional, cell-based;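 note: luciferase reporter driven by Pax8 target thyroperoxidase promoter measured by SteadyGlo luminescence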
cells [6] = format: functional, cell-based
cells [7] = format: functional, cell-based; remark: listed apart in the source
[8] = NIH-3T3 fibroblast cytotoxicity, dose response, cytotoxicity control, cell-based, fluorescence, Alamar Blue, secondary assay (AID 2327); format: functional;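 note: NIH-3T3 mouse fibroblasts cultured with fluconazole at 8 µg/mL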
[9] = C. albicans growth with fluconazole, confirmation, fluorescence, retest (AID 2467); format: functional, cell-based
[10] = biological target: T2, Corticotropin-releasing factor receptor 2/Corticotropin-releasing factor-binding protein (Homo sapiens, UniProt P24387+Q13324); experiment: activators of CRF receptor 2 with binding protein – uHTS hits, confirmation (AID 602473); format: functional; settings: read-out: EC50_Mean
T2 sequence (Q13324 whole entry): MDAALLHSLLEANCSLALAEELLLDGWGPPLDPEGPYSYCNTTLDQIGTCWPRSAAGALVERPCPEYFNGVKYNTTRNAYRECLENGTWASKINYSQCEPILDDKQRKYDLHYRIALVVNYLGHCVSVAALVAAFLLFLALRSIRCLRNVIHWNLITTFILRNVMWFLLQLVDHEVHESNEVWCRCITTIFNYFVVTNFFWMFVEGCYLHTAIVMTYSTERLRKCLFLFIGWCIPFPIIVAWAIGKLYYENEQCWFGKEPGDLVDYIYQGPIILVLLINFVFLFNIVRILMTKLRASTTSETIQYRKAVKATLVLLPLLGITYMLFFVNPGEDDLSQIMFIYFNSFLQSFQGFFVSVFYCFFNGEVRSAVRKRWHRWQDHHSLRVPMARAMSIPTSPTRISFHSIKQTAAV
T2 sequence (P24387 whole entry): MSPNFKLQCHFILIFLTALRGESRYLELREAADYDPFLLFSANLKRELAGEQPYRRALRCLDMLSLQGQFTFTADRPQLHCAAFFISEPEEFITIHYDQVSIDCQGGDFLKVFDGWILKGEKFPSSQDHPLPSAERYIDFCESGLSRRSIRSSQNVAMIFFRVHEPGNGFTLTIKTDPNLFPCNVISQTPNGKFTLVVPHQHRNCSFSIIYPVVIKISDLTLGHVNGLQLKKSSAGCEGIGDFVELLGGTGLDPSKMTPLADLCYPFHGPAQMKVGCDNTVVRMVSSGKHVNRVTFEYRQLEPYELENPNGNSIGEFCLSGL

[11] = cytotoxicity toward NIH3T3 fibroblasts, dose response, counter-screen, cell-based, ATP luminescence, mouse fibroblasts (AID 2010); format: functional;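 note: cells exposed to compound for about 90 hours before reading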
[12] = Luminescence Cell-Based Dose Retest to Confirm Inhibitors of Cancer Stem Cells. [Related pubchem assays (depositor defined):AID2717, AID2721]; format: functional, Homo sapiens; settings: Homo sapiens
[13] = inhibitors of intracellular T. cruzi replication, confirmation, NIH3T3 host cells, beta-gal luminescence (AID 2044); format: functional, cell-based;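 note: intracellular parasites grown in NIH/3T3 mouse fibroblasts as host cells; luminescent beta-galactosidase reporter signal from transgenic T. cruzi replicating inside host cells; inhibitors lower the luminescence signal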
[14] = biological target: T3, RNA-binding protein pos-1 (Caenorhabditis elegans, UniProt G5EF15); experiment: inhibitors of POS-1/mex-3 RNA binding, dose response, biochemical, fluorescence polarization (AID 1964);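 note: purified POS-1 fused to maltose binding protein made in E. coli; potency of compounds blocking POS-1 binding to fluorescent RNA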
T3 sequence (G5EF15 whole entry): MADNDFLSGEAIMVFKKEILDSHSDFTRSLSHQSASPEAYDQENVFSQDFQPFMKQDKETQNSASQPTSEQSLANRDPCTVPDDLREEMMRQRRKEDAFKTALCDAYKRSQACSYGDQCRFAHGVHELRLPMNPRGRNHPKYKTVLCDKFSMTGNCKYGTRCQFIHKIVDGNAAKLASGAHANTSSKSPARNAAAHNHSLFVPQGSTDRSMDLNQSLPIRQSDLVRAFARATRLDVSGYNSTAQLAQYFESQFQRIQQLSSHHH

[15] = control 3'UTR Renilla luciferase suppression, dose response, counter-screen for Shn3 inhibitor project, cell-based, Clone20-Shn3RL, cherry-picked (AID 624133); format: functional
[16] = Shn3 3'UTR reporter inhibitors, dose response, cell-based, Clone20 osteoblasts, firefly luciferase, cherry-picked (AID 624132); format: functional;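 note: firefly luciferase luminescence from reporter carrying the Shn3 3'UTR in osteoblasts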
[17] = inhibitors of firefly luciferase expression or activity, dose response, H4 neuroglioma cells, luminescence (AID 1990); format: functional, cell-based
INS1 = experiment: beta cell apoptosis inhibitors, cytokine rescue, dose response, luminescence, retest (AID 449756); format: functional, cell-based; settings: Rattus norvegicus;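 note: cell death triggered by IL-1 beta plus TNF-alpha plus IFN-gamma mixture; protective hits raise ATP signal compared with cytokine alone wells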
[18] = inhibitors of SNCA 5'UTR-driven reporter translation, confirmation, H4 neuroglioma cells, luminescence (AID 1988); format: functional, cell-based
[19] = Luminescence Cell-Based Dose Response HTS to Identify Inhibitors of 5'UTR Stem-Loop Driven Prion Protein mRNA Translation in H4 Neuroglioblastoma Cells. [Related pubchem assays: 1827 (Project Summary), 1813 (Primary HTS)]; format: functional
cells [20] = format: functional
[21] = inhibitors of clade B AD8 Env fusion, dose response, cell-based, cherry-pick (AID 652062); format: functional;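 note: luciferase signal from cell-cell fusion driven by HIV-1 clade B AD8 Env; potency is for inhibitors of fusion seen as a drop in luminescence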
[22] = inhibitors of HIV Env-driven cell fusion, dose response, cherry-pick (AID 652057); format: functional, cell-based
[23] = ZM109 Env clade C HIV-1 fusion inhibitors, dose response, HeLa effector, CEM target cells, luciferase, cherry-pick (AID 652058); format: functional, cell-based

Sequence of Paired box protein Pax-8 (Q06710 whole entry): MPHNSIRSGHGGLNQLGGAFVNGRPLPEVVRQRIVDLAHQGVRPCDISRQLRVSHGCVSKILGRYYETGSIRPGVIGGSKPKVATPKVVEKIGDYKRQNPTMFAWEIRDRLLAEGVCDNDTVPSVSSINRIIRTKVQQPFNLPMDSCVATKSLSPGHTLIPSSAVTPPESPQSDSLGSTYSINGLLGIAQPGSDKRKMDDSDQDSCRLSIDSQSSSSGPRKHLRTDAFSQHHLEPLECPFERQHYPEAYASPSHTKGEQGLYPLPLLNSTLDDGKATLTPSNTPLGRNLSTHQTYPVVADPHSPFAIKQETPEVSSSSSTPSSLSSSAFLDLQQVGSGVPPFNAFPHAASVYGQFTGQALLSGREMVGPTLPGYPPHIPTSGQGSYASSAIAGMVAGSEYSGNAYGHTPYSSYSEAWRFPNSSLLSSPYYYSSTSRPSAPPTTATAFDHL

CC(C)CN1C(=S)SC(C)(C)C1n1oc(=O)n(-c2ccc(Cl)cc2)c1=O (centres undefined)
EC50 [1]: 21.9 µM (active) | EC50 [2]: 4.36 µM (active) | EC50 (Streptococcus): 18.8 µM (active) | EC50 [3]: 20.7 µM (active) | EC50 (Streptokinase A): 5.59 µM (active)

C=CCNc1oc(-c2ccc(-c3ccccc3)cc2)nc1C#N
CC50 [4]: > 40 µM (active)

C[C@H]1CN([C@@H](C)CO)S(=O)(=O)c2ccc(C#Cc3ccccc3F)cc2O[C@H]1CN(C)C(=O)c1ccc2c(c1)OCO2
AC50 [5]: 5.07 µM (active) | AC50 (Paired box protein Pax-8): 5.76 µM (active)

COc1ccc2nc(NC(=O)CSc3nccc(C)n3)sc2c1
EC50 (cells [6]): > 350 µM (not active) | EC50 (cells [7]): > 350 µM (not active)

COCC(=O)Nc1ccc2c(c1)C(=O)N(C)C[C@@H](OC)[C@H](C)CN(CC1CCCCC1)[C@@H](C)CO2
AC50 [5]: 6.65 µM (active)

COc1ccc2o/c(=N\c3ccccc3)c(-c3nc4ccccc4[nH]3)cc2c1
EC50 [1]: 2.22 µM (active) | EC50 [3]: 2.59 µM (active)

CCCCCN(C(=O)CCC(=O)OCC(=O)c1ccc(C(C)CC)cc1)c1c(N)n(CCCC)c(=O)[nH]c1=O (centres undefined)
EC50 (cells [6]): > 350 µM (not active) | EC50 (cells [7]): > 350 µM (not active)

CC(C(=O)N1CCOCC1)N1c2cccc3cccc(c23)S1(=O)=O (centres undefined)
EC50 (cells [6]): > 350 µM (not active) | EC50 (cells [7]): > 350 µM (not active)

N#C[C@@H]1[C@@H](c2ccc(C#CC3CCCCC3)cc2)[C@H](CO)N1C(=O)Nc1ccc(F)cc1
AC50 [5]: 5.12 µM (active)

COc1cccc(/C=N/Nc2cc(-n3nc(C)cc3-c3ccccc3)ncn2)c1O
EC50 [8]: 61 µM (active) | EC50 (cells [6]): > 350 µM (not active) | EC50 (cells [7]): > 350 µM (not active) | EC50 [9]: 1.57 µM (active)

NNc1nc2ccc(Cl)cc2s1
CC50 [4]: > 40 µM (active)

O=C(NC(=S)N1CCc2ccccc21)c1ccc(Br)o1
CC50 [4]: 39.7 µM (active)

COc1ccc(CC(=O)Nc2ccc(-c3noc(-c4ccc(Cl)cc4)n3)cc2)cc1
EC50 [1]: 2.11 µM (active) | EC50 [3]: 1.69 µM (active)

O=c1c(/C=C(\O)c2ccc(F)cc2)nc2ccccc2n1-c1ccccc1
EC50 [10]: 7.18 µM (active)

Oc1ccc(Cl)cc1CNCC1CCCO1 (centres undefined)
EC50 (cells [6]): > 350 µM (not active) | EC50 (cells [7]): > 350 µM (not active)

Cc1oc(-c2ccc(Cl)cc2)nc1C[S+]([O-])CC(=O)NCCN1CCCCCC1 (centres undefined)
EC50 (cells [6]): > 350 µM (not active) | EC50 (cells [7]): > 350 µM (not active)

O=C(NCc1ccco1)c1cc(-c2ccccc2)on1
EC50 (cells [6]): 62.4 µM (active) | EC50 (cells [7]): > 350 µM (not active)

CCN1C(NCCc2ccc(Br)cc2)=N[C@@H](c2ccccc2)[C@H](C(=O)OC)[C@H]1C
CC50 [4]: 34.3 µM (active)

CCOC(=O)/C(=N/Nc1ccccc1)c1csc(Nc2ccccc2)n1
EC50 [11]: > 30 µM (not active) | EC50 [2]: 3.92 µM (active) | EC50 (Streptococcus): 4.88 µM (active) | AC50 [12]: 1.88 µM (active) | EC50 [13]: 1.39 µM (active) | CC50 [4]: > 40 µM (active) | EC50 (Streptokinase A): > 150 µM (not active)

CCOc1ccc(N2C(=O)/C(=C/c3ccco3)C(=O)NC2=S)cc1
EC50 [14]: 55.3 µM (active)

COC(=O)CNC(=O)COC(=O)C(Cc1ccccc1)NC(=O)c1ccco1 (centres undefined)
EC50 [10]: > 53 µM (inactive)

C[C@H](CO)N1C[C@H](C)[C@H](CN(C)CC2CC2)Oc2ccc(NS(=O)(=O)c3ccc(Cl)cc3)cc2CC1=O
AC50 [5]: 5.58 µM (active)

N=C(NOC(=O)C(c1ccccc1)c1ccccc1)c1cccnc1
EC50 (cells [6]): > 350 µM (not active) | EC50 (cells [7]): > 350 µM (not active)

CC(=O)O[C@H]1CC[C@@]2(C)C(=CC[C@H]3[C@@H]4CC[C@H](C(C)=O)[C@@]4(C)CC[C@@H]32)C1
AC50 [15]: 29 µM (active) | AC50 [16]: 28.5 µM (active)

CCOC(=O)c1[nH]c(CN2CCN(c3ccc(OC)cc3)CC2)c(C(=O)OCC)c1C
CC50 [4]: > 40 µM (active)

CCCCCCc1cc2cc(C(=O)Nc3cccc(OC)c3)c(=O)oc2cc1O
EC50 [17]: > 120 µM (not active) | AC50 (INS1): 4.06 µM (active) | EC50 [10]: > 53 µM (inactive) | EC50 [18]: 16.6 µM (active) | EC50 [19]: 65.8 µM (active)

COc1ccccc1NC(=S)NC(=O)Cc1ccc(Cl)cc1
EC50 [10]: 9.41 µM (active)

CC1(C)CC(=O)C(CC2C(=O)CC(C)(C)CC2=O)C(=O)C1
EC50 (cells [6]): 98.1 µM (active) | EC50 (cells [7]): > 350 µM (not active)

Cc1ccc(C(=O)CSc2cc(C)nc(O)n2)cc1
EC50 (cells [6]): > 350 µM (not active) | EC50 (cells [7]): > 350 µM (not active)

O=C(Nc1nnc(C2=COCCO2)o1)c1ccc(Cc2ccccc2)cc1
EC50 [2]: 2.54 µM (active) | EC50 (Streptococcus): 3.96 µM (active) | IC50 (cells [20]): 10.2 µM (active) | CC50 [4]: > 40 µM (active)

C[C@H](CO)N1C[C@H](C)[C@@H](CN(C)Cc2ccc(Cl)c(Cl)c2)Oc2ccc(N(C)C)cc2C1=O
AC50 [21]: 8.23 µM (active) | AC50 [22]: 10.5 µM (active) | AC50 [23]: 5.9 µM (active)

CCCNC(=O)C[C@H]1CC[C@@H]2[C@@H](COc3ccc(NC(=O)c4cccc(C(F)(F)F)c4)cc3C(=O)N2C)O1
AC50 [21]: 12.7 µM (active) | AC50 [22]: 36 µM (active) | AC50 [23]: 5.51 µM (active)
